Assay results from US20200023001A1, “GlycoFix (Structurally And Functionally Repaired Endothelial Glycocalyx)” (Northeastern University, priority 2018, published 2020).
Several values for one entry are separate records, joined by “and”; a condition that tells them apart may be missing. Equal values may be shown once.

Tested on: Cx43 at RFPEC borders
Experiment: Cx43 expression at EC borders, immunostaining and confocal microscopy
Type: cell-based, rat
Protocol: Cell Culture. Rat fat pad ECs (RFPEC) at passages 20 to 39 were offspring of cells isolated from rat epididymal fat pad and provided by Dr. Mia Thi of Albert Einstein College of Medicine (Bronx, N.Y.). […] The RFPECs are immortalized, making it possible to use late passages. RFPEC were seeded on 12-14-mm diameter and 0.13-0.17-mm thick glass coverslips at a seeding density of 15,000-20,000 cells/cm^2. Cells were cultured in Dulbecco's Modified Eagle Medium (DMEM, Invitrogen, USA) with 1% penicillin-streptomycin (PS) and 10% fetal bovine serum (FBS, Gibco Life Technologies). Cells were maintained in humidity at 37° C. and 5% CO2. RFPECs reached full confluence in 3 days.
Cultured RFPECs produce thick and robust GCX in this time period. At 3 days post-seeding the RFPECs' culture medium was supplemented with 1% BSA in place of FBS to stabilize the GCX during preservation and immunolabeling (described below). For enzyme treatment experiments, 25 micro-international units per milliliter (μIU/ml) of heparinase III (Hep III; IBEX, Canada) were added to BSA-containing culture media for 2 hours to degrade HS from the GCX [46]. HepIII was washed out, and the wash-out was followed by a 16-hour incubation of RFPECs in regular BSA-containing media. In self-recovery experiments, RFPEC GCX was left to recover for 24 hours after enzyme degradation. The time frame was chosen in accordance with the 20-hour time period that is required for HS restoration to occur on the surface of ECs. For HS recovery experiments, exogenous HS and/or S1P were applied for 16 hours to accommodate the communication test as an assessment of functional glycocalyx recovery. […] After HS was degraded with HepIII, it was replaced by a 16-hour feeding of RFPECs with 59 μg/ml exogenous porcine mucosal HS (Celsus, Cincinnati, Ohio), based on published serum concentration of HS [43]. In sphingosine-1-phosphate experiments, culture media containing enzyme was substituted for media containing either 10 μM of S1P (Sigma-Aldrich) or a combination of 59 μg/ml of HS and 10 μM of S1P for 16 hours after enzyme degradation.
As specified by the manufacturer, the HS antibody reacts with many types of heparan sulfate. The reactivity of the HS antibody is abolished after treatment with Hep III, indicating antibody specificity. For secondary detection of HS, Alexa Flour 488 conjugated goat anti-mouse IgG/IgM (H+L; Life Technologies) secondary antibody was used. RFPECs to be processed for connexin 43 (Cx43) were fixed in 4% paraformaldehyde, permeabilized in 0.2% Triton X-100 (Fisher), and blocked in 5% goat serum combined with 0.2% Triton X-100. Connexin 43 staining was performed overnight at 4° C. with 1:100 mouse monoclonal Cx43 antibody (Millipore). […] Secondary Cx43 detection was done with Alexa Flour 488 conjugated goat anti-mouse IgG. […] These controls confirmed that the staining observed in the RFPECs is not an artefact.
Confocal immunofluorescence microscopy imaging and analysis. Alexa Fluor 488 fluorescent RFPECs were mounted with Vectashield containing DAPI (Vector Labs) and imaged with a Zeiss LSM 700 laser scanning confocal microscope. HS and Cx43 were imaged at 63× magnification (oil objective) and 40× magnification (oil objective), respectively. Lasers with excitation wavelengths of 490 nm (for HS or Cx43) and 350 nm (for DAPI) were used to obtain XY-plane slices. Laser gain and transmission were kept below fluorophore saturation levels. Confocal slice intervals were 0.2 μm for HS and 0.7 μm for Cx43. […]

For heparan sulfate [HS], the “Cx43 distribution along the perimeter of the cells” value (RFPEC, Hep III, then 16 h with or without 59 μg/ml HS and/or 10 μM S1P, mean±SEM) was 46% and 46.45±4.21%, the “Cx43 distribution/expression, result in words (FIG. 3 legend)” value (after Hep III, HS 59 μg/ml, S1P 10 μM) was “partially restored” and the “Cx43 recovery at cell borders, % of baseline conditions” value (treatment after enzymatic HS degradation) was “approximately 80%”.
